Measured values published in US20250214951A1, “3-PHENYLISOXAZOLE DERIVATIVE, AND PHARMACEUTICAL COMPOSITION FOR PREVENTING OR TREATING EYE DISEASE, CONTAINING SAME AS ACTIVE INGREDIENT” (VASTHERA CO., LTD., priority 2022, published 2025).

Columns and labels:
[1] = system: p62 protein phosphorylated at serine 349 (p-p62 (S349)); test: Autophagy activation by increase of p-p62 (S349), Western immunoblotting; type: cell-based, human; settings: indicated concentrations; FIG. 14
Experimental: The cells were treated with the test compounds at the indicated concentrations, and the autophagy activation effect through the increase of p62 protein (p-p62 (S349)) phosphorylated at serine 349 residue was measured by Western immunoblotting using an anti-p-p62 antibody, and the results are shown in FIG. 14. The increase in the intracellular P-p62 ([…]) level is one of the major indicators of autophagy activation.

[2] = system: A2E-BDP in ARPE-19 cells; test: A2E-BDP removal ability by concentration of other example compounds; type: cell-based, human; settings: indicated concentrations; FIG. 13
Experimental: (§1) The human retinal pigment epithelial cell line (ARPE-19) used in the experiment was provided by ATCC (American Type Culture Collection). The ARPE-19 cell line was cultured in DMEM medium containing 10% FBS. After culture, the cells were dispensed into 96-well plates at a concentration of 4×10^3 cells/well and cultured for 24 hours. The ARPE-19 cell line was treated with A2E-fluorescent labeling substance (A2E-BDP) at a concentration of 10 μM for 24 hours to induce the accumulation of A2E-BDP in the ARPE-19 cell line.
(§2) In order to evaluate the intracellular A2E removal ability of the compound of the present invention, an easily detectable A2E-fluorescent labeling substance (A2E-BDP) was used. The ARPE-19 cells prepared by the above method were treated with each test compound at a concentration of 50 μM once, and then cultured for 24 hours. The cells were lysed by adding a cell lysis buffer containing a protease inhibitor (50 mM Tris-chloride, pH 8.0, 150 mM sodium chloride, 1% NP-40, 1% sodium deoxycholate, 1% sodium dodecyl sulfate, and 2 mM ethylenediamine tetraacetic acid) to each 96-well. The prepared cell lysate was transferred to a white 96-well plate, and the fluorescence intensity was measured using a fluorescence microplate reader (VICTOR™ X3, Perkin Elmer, USA) (excitation 485 nm, emission 535 nm).
The A2E-fluorescent labeling substance (A2E-BDP) removal ability was evaluated according to Experimental Example 1 (except that the test compound was treated at the indicated concentration).

[3] = system: A2E-BDP present in human retinal pigment epithelial cells (ARPE-19); test: Screening of ability to remove A2E-fluorescent labeling substance (A2E-BDP), lysate fluorescence; type: cell-based; settings: ARPE-19, 24 h, ARPE-19 loaded with 10 μM A2E-BDP 24 h, test compound 50 μM once, fluorescence ex 485/em 535 nm, read-out: Capacity (%) to remove A2E-BDP at 50 μM
Experimental: as §1, §2

[4] = system: A2E-BDP in ARPE-19 cells; test: Removal of A2E-BDP by concentration, fluorescence and phase contrast microscopy; type: cell-based, human; settings: ARPE-19 with A2E-BDP; 10, 25, 50 μM, 24 h; FIG. 1
Experimental: ARPE-19 cell line was dispensed into a 24-well plate at a concentration of 4×10^4 cells/well and cultured for 24 hours. In order to induce A2E-BDP accumulation in ARPE-19 cell line, the cells were treated with […] of 10 μM for 24 hours. The A2E-BDP-containing ARPE-19 cells were treated with compound 17 (10, 25, 50 μM) for 24 hours. The level of A2E-BDP in each cell was measured as a fluorescence image at 510 nm using a Nikon Eclipse Ti—U fluorescence microscope (Tokyo, Japan). In addition, the change in cell number according to compound treatment was observed using a general phase contrast microscope, and the results are shown in FIG. 1. Meanwhile, lutein was used as a control substance.

SMILES	autophagy activation through increase of p-p62 (S349) [1]	A2E-BDP removal ability by concentration (amount of A2E) [2]	inhibition at 50 µM [3] [%]	A2E-BDP fluorescence intensity (fluorescence microscope) [4]
CCCc1ccc(OC)c(-c2cc(CN3CCN(C(=O)OC(C)(C)C)CC3)on2)c1 [Example 26, tert-butyl 4-((3-(2-methoxy-5-propylphenyl)isoxazole-5-yl)methyl)piperazine-1-carboxylate]	activated autophagy in a concentration-dependent manner	concentration-dependent decrease in the amount of A2E	≥ 60	
CC1=C[C@H](O)CC(C)(C)[C@H]1/C=C/C(C)=C/C=C/C(C)=C/C=C/C=C(C)/C=C/C=C(C)/C=C/C1=C(C)C[C@@H](O)CC1(C)C [lutein, reference compound]				a decrease in fluorescence intensity was observed
